In patent publication US9334246B2, “Substituted triazines for malaria treatment and chemoprophylaxis” (The United States of America, as represented by the …, priority 2013, dated 2016):
Like-named read-outs stand apart in the source and are kept apart here.

Columns and labels:
[1] = molecular target: T1, hERG potassium ion channel (Homo sapiens, UniProt Q12809); details: 10 μM
P. falciparum C235 = test: Malaria SYBR Green Fluorescence Assay, C235 strain; type: cell-based, Plasmodium falciparum; details: for C235: SYBR Green Assay
P. falciparum W2 = test: Malaria SYBR Green Fluorescence Assay, W2 strain; type: cell-based, Plasmodium falciparum; details: for W2: SYBR Green Assay
P. berghei = test: Thompson Test, in vivo mouse malaria assay; design: species or system mice (ICR strain)
P. falciparum D6 = test: Malaria SYBR Green Fluorescence Assay, D6 strain; type: cell-based, Plasmodium falciparum; details: for D6: SYBR Green Assay
[2] = in vivo
hERG channel = hERG channel (Homo sapiens, UniProt Q12809)
[3] = test system: drug resistant strains of P. falciparum; test: in vitro profiling against different drug resistant strains of P. falciparum; type: cell-based, Plasmodium falciparum
[4] = molecular target: T1, hERG potassium ion channel; test: hERG patch clamp assay (% inhibition at 10 μM)
[5] = % inhibition at 10 μM, patch clamp
[6] = (160 × 3): 160 mg/kg for 3 days

T1 sequence (Q12809 whole entry): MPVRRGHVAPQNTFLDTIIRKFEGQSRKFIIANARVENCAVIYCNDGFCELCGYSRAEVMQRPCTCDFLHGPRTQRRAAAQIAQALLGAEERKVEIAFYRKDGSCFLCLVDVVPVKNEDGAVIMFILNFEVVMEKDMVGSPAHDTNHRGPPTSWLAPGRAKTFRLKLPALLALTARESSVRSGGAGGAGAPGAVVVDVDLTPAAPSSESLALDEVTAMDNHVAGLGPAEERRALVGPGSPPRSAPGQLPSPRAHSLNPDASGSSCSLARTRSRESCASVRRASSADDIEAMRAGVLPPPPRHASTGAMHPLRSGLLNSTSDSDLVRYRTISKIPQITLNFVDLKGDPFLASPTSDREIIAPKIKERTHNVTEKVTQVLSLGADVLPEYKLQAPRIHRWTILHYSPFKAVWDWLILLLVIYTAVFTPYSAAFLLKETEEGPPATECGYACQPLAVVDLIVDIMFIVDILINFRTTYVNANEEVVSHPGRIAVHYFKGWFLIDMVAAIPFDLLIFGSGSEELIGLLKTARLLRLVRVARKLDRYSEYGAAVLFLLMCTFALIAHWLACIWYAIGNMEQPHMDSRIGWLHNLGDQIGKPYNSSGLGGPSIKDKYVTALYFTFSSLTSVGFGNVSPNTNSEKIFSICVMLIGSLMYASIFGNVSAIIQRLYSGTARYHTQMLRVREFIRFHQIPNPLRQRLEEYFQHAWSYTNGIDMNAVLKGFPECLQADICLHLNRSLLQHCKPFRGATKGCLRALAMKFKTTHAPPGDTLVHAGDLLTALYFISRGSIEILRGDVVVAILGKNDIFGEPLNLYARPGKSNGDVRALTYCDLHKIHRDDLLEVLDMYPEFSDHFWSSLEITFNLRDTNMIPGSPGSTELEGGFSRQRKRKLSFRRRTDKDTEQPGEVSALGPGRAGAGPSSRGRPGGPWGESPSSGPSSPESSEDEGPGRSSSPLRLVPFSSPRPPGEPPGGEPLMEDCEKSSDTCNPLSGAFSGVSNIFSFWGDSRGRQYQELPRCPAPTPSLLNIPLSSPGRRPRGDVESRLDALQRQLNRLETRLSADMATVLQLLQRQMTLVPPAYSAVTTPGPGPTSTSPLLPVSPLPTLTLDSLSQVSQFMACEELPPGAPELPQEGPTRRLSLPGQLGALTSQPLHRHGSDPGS
Chain of hERG channel (Q12809 whole entry): as above

Row | Molecule | In vivo Results Thompson Assay (n/N Cures or Suppressive) (P. berghei; (40 × 3): 40 mg/kg for 3 days) | In vivo Results Thompson Assay (n/N Cures or Suppressive) (P. berghei; (80 × 3): 80 mg/kg for 3 days) | Rhesus Results (P. cynomolgi; 65 mg/kg once weekly) | Rhesus Results (P. cynomolgi; 65 mg/kg/day × 7 days) | C235 (P. falciparum C235) [ng/mL] | hERG [4, 5] [%] | W2 (P. falciparum W2) [ng/mL] | D6 (P. falciparum D6) [ng/mL] | further results
1 | CC(CNc1nc(Nc2ccc(Cl)c(Cl)c2)nc(n1)C(Cl)(Cl)Cl)N(C)C [Compound 641] | 2/5 | (80 × 3) 5/5 Cures | prophylaxis | malaria cures |  |  |  |  | hERG (% inhibition) [1]: 117%; C235 (SYBR Green Assay IC50) (P. falciparum C235): 0.013 µg/mL; W2 (SYBR Green Assay IC50) (P. falciparum W2): 0.005 µg/mL; In vivo Results Thompson Assay (n/N Cures) (P. berghei; (160 × 1): single 160 mg/kg PO dose): 5/5; malaria parasitemia, prophylactic drug, rhesus P. cynomolgi relapsing model (P. cynomolgi; dosed once weekly (65 mg, PO)): prevented malaria parasitemia; tolerability (P. cynomolgi; rhesus monkey, in vivo, 316 mg/kg): well tolerated; D6 (SYBR Green Assay IC50) (P. falciparum D6): 0.015 µg/mL; mouse half-life ([2]; po, 80 mg/kg): 8 h; Cmax ([2]; mouse): > 600 nM; IC50 (hERG channel): 600 nM; in vitro potency [3]: excellent in vitro potency
2 | CC(C)(N)CNc1nc(-c2ccc(C(Cl)(Cl)Cl)cc2)nc(C(Cl)(Cl)Cl)n1 [Compound 55] | 3/5 | 5/5 | prophylaxis | malaria cures | 89 | 17 | 30 | 46 | 
3 | ClC(Cl)(Cl)c1nc(-c2ccc3ccccc3c2)nc(N2CCCNCC2)n1 [Compound 227] |  | (80 × 3) 2/5 Cures |  |  | 12 | 18 | 10 | 29 | 
4 | CC(C)(N)CNc1nc(-c2cc(Cl)cc(Cl)c2)nc(C(Cl)(Cl)Cl)n1 [Compound 195] | 2/5 | 5/5 |  |  | 3 | 3 | 6 | 6 | In vivo Results Thompson Assay (n/N Cures or Suppressive) (P. berghei; [6]): Cures; (160 × 3) 5/5 Cures
5 | CC(C)(N)CNc1nc(-c2ccc(S(C)(=O)=O)cc2)nc(C(Cl)(Cl)Cl)n1 [Compound 97] |  | (80 × 3) Suppressive; |  |  | 33 | 35 | 20 | 26 | In vivo Results Thompson Assay (n/N Cures or Suppressive) (P. berghei; [6]): (160 × 3) Suppressive
6 | CC(C)(C)c1ccc(cc1)c2nc(nc(n2)C(Cl)(Cl)Cl)N3CC4CC3CN4 [Compound 721] |  | (80 × 3) 2/5 Cures | prophylaxis | malaria cures | 126 |  | 69 | 142 | hERG ([4]; hERG activity as % inhibition): 2%
7 | CN1CCN(c2nc(-c3ccc([S+](C)[O-])cc3)nc(C(Cl)(Cl)Cl)n2)CC1 (centres unmarked) [Compound 72] |  | (80 × 3) Suppressive |  |  | 27 | 41 | 33 | 33 | 
